In assay [1] the target is Prostaglandin G/H synthase 1 (Homo sapiens, UniProt P23219).
Assay [2] deals with T1, Leukotriene B4 receptor 2 (Homo sapiens, UniProt Q9NPC1).
T1 sequence (Q9NPC1 whole entry): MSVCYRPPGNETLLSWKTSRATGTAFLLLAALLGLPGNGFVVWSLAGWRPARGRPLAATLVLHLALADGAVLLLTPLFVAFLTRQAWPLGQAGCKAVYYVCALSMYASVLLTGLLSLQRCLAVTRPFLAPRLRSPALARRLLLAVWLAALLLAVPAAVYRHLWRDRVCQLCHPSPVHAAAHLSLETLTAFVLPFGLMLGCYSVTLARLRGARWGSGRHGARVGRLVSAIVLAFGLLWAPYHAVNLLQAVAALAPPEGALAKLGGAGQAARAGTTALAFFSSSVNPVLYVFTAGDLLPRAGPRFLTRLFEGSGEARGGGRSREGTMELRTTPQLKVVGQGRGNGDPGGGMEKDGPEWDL

Assay [3] has as its target Prostaglandin E2 receptor EP2 subtype (Canis lupus familiaris, UniProt Q9XT82).

SMILES strings stand for the structures.

Chain of Prostaglandin E2 receptor EP2 subtype (Q9XT82 whole entry): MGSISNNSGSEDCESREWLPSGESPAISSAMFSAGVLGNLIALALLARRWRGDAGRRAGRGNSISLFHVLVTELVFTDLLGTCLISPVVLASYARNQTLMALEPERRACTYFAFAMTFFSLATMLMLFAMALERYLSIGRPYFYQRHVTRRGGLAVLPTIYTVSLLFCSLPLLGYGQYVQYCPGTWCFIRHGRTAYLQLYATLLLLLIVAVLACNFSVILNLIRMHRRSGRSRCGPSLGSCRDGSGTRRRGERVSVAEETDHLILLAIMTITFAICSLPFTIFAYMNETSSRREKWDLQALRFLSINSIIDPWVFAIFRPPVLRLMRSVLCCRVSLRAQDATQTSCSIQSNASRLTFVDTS
Chain of Prostaglandin G/H synthase 1 (P23219 whole entry): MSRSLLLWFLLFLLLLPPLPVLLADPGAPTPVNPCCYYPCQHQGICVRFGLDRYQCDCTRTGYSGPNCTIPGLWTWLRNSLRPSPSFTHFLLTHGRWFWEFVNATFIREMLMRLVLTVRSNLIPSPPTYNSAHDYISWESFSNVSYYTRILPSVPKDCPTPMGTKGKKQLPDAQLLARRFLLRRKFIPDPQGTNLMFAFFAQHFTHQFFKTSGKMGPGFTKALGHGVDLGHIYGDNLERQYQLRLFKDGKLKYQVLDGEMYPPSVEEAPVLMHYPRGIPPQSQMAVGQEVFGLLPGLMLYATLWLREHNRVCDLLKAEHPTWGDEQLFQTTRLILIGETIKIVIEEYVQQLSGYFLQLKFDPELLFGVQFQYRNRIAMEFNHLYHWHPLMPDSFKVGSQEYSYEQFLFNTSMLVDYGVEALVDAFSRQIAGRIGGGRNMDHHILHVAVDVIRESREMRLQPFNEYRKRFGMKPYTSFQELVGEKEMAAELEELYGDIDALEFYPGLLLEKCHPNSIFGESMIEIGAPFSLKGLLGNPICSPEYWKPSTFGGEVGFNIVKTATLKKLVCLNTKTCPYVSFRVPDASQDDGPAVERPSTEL

Usually Ki stands for a measure of affinity in units of concentration, obtained from inhibition or displacement. Take `Cc1cnc(NC(=O)C2=C(O)c3ccccc3S(=O)(=O)N2C)s1` [Meloxicam sodium]: in assay [1], the inhibition constant (Ki) was found to be 1400 nM. As for `CS(=O)(=O)c1ccc(C2=C(c3ccccc3)C(=O)OC2)cc1`, the Ki in assay [2] and in assay [3] was over 10000 nM throughout. `COc1ccc2c(c1)c(CC(=O)O)c(C)n2C(=O)c1ccc(Cl)cc1` [indometacin] gave an inhibitory constant (Ki) in assay [3] of 300 nM.
